Legend:
[1] = target: T1, protein-protein interaction between hSOS1 and hKRASG12C (Homo sapiens, UniProt Q07889); assay: KRAS-SOS1 interaction assay (HTRF); type: binding; conditions: GST-hSOS1 564-1049aa, HIS-hKRASG12C, read-out: KRAS-SOS1 Interaction inhibition IC50
T1 construct: GST-hSOS1, 564-1049aa expressed and purified in-house
T1 sequence (Q07889 564-1049): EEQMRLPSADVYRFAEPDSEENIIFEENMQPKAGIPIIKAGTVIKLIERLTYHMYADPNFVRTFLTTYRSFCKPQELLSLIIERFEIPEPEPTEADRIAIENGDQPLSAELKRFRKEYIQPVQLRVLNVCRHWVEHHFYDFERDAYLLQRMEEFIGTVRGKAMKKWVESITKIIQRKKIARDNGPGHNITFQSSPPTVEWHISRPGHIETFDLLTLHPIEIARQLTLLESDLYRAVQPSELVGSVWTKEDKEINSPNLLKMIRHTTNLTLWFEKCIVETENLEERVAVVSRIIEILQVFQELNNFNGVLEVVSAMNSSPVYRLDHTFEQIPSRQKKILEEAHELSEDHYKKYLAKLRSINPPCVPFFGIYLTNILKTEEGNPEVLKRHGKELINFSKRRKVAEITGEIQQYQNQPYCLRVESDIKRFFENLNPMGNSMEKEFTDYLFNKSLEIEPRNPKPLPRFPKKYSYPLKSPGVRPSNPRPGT
Procedure: Interaction assay was conducted to evaluate the ability of the compounds to disrupt the protein-protein interactions between hSOS1 and hKRASG12C. Inhibitory effect of compounds on GST-hSOS1, 564-1049aa expressed and purified in-house and HIS-hKRASG12C (R06-32DH, SignalChem) interaction was assessed using HTRF detection technology in biochemical assay. Compounds were pre-incubated with 10-50 nM working solution of hSOS1 per well of a 384 well plate (Perkin Elmer, Cat #6007290) for 10 min at 20° C. in the assay buffer containing 5 mM HEPES, pH 7.4, 150 mM NaCl, 10 mM EDTA, 1 mM DTT, 0.05% BSA fraction V and 0.0025% Igepal. Reaction was initiated by adding 100-300 nM working solution of hKRASG12C in assay buffer. Total assay volume was 15 μL. Reaction was continued for 30-60 min at 20° C. Then detection solution containing MAb Anti-GST-d2 (#61GSTDLA, Cisbio BioAssays) and MAb Anti-HIS-Tb (#61HISTLA, Cisbio BioAssays), all prepared in HTRF detection buffer (#61DB10RDF, Cisbio BioAssays) was added and further incubated for 30-60 min at 20° C. HTRF signal was recorded in PHERAStar microplate reader. Ratio of signal obtained at 665 nm and 620 nm was used to compute the percent inhibition of compound utilizing the following formula: […]

[2] = target: T2, nucleotide exchange on hKRASG12C mediated by hSOS1 (Homo sapiens, UniProt Q07889); assay: Guanine nucleotide exchange assay (GNEA, HTRF); type: biochemical; conditions: HIS-hSOS1 564-1049aa mediated GTP loading onto GST-hKRASG12C 1-169aa, read-out: Guanine nucleotide exchange inhibition IC50
T2 construct: HIS-hSOS1, 564-1049aa mediated GTP loading onto GST-hKRASG12C; His (N); made in house
T2 sequence (Q07889 564-1049): T1 sequence (Q07889 564-1049)
Procedure: Example-154: Guanine nucleotide exchange assay (GNEA) GNEA assay was conducted to evaluate the effects of compounds on the nucleotide exchange on hKRASG12C mediated by hSOS1. Inhibitory effect of compounds on HIS-hSOS1, 564-1049aa mediated GTP loading onto GST-hKRASG12C, 1-169aa both expressed and purified in-house was assessed using HTRF detection technology in biochemical assay. Compounds were pre-incubated with hSOS1 working solution containing 10-50 nM hSOS1 and 200 nM EDA-GTP-DY-647P1 (Custom manufactured, Jena Biosciences) per well of a 384 well plate (Perkin Elmer, Cat #6007290) for 10 min at 20° C. in the assay buffer containing 10 mM HEPES, pH 7.4, 150 mM NaCl, 5 mM MgCl2, 1 mM DTT, 0.05% BSA fraction V and 0.0025% Igepal. Reaction was initiated by adding working solution of hKRASG12C containing 25-125 nM hKRASG12C and MAb Anti-GST-Tb (#61GSTTLA, Cisbio BioAssays) in assay buffer. Total assay volume was 15 μL. Reaction was continued for 30-60 min at 20° C. HTRF signal was recorded in PHERAStar microplate reader. Ratio of signal obtained at 665 nm and 620 nm was used to compute the percent inhibition of compound as follows.

[3] = tested on: pERK after EGF stimulation in DLD1 cells; assay: ERK phosphorylation assay (alphascreen pERK); type: cell-based; conditions: Homo sapiens, DLD-1, 2 h compound, 200 ng/ml hEGF for 5 minutes, read-out: ERK phosphorylation inhibition IC50
Procedure: Compounds were tested for their ability to inhibit pERK after EGF stimulation in DLD1 cells. Cells were seeded at 0.2 million cells per well in 96 well cell binding tissue culture plate in 100 μL complete media and were allowed to settle overnight (16 to 20 h). On the following day, cells were treated with various concentrations of test compounds for 2 h followed by stimulation with 200 ng/ml hEGF (diluted in PBS) for 5 minutes. Cells were then washed once with PBS and lysed in freshly prepared lysis buffer (provided with alphascreen surefire ERK1/2 p-T202/Y204 assay kit, cat no: TGRESB10K, Perkin Elmer). Lysis was carried out in plate shaker for 10-15 mins. Lysate was transferred to […] white opti-plate (Perkin Elmer) and alphascreen for pERK was carried out as per manufacturer's instructions. Plate was read after 2 h incubation in plate shaker at […] 300 RPM, 25-28° C. The difference between the unstimulated and stimulated Vehicle control is considered as 100% ERK phosphorylation, and % inhibition of compounds is calculated accordingly.

SMILES	IC50 [1] [µM]	IC50 [2] [µM]	IC50 [3] [µM]
COC1(C)C(=O)N(C)c2cc3nc(C)nc(N[C@H](C)c4cccc(C(F)(F)C(C)(C)O)c4F)c3cc21 (mixture of isomers) [Compound 96, (R&S)-4-(((R)-1-(3-(1,1-difluoro-2-hydroxy-2-methylpropyl)-2-fluorophenyl)ethyl)amino)-6-methoxy-2,6,8-trimethyl-6,8-dihydro-7H-pyrrolo[3,2-g]quinazolin-7-one]	0.001 to 0.01	0.001 to 0.03	0.001 to 0.2
Cc1nc(N[C@H](C)c2cccc(C(F)(F)[C@](C)(O)CO)c2F)c2cc3c(cc2n1)OC(C)(C)C(=O)N3C (racemic) [Compound 23b, 4-(((R/S)-1-(3-((R/S)-1,1-difluoro-2,3-dihydroxy-2-methylpropyl)-2-fluorophenyl)ethyl)amino)-2,6,8,8-tetramethyl-6H-[1,4]oxazino[3,2-g]quinazolin-7(8H)-one]	0.001 to 0.01	0.001 to 0.03	0.001 to 0.2
Cc1nc(N[C@H](C)c2cccc(C(F)(F)C(C)(C)O)c2F)c2cc3c(cc2n1)N(C)[C@@H](C)C(=O)N3C (racemic) [Compound 27a, (S/R)-4-(((R)-1-(3-(1,1-difluoro-2-hydroxy-2-methylpropyl)-2-fluorophenyl)ethyl)amino)-2,6,8,9-tetramethyl-8,9-dihydropyrazino[2,3-g]quinazolin-7(6H)-one]	0.001 to 0.01	0.001 to 0.03	0.001 to 0.2
Cc1nc(N[C@H](C)c2cccc(C(F)(F)CO)c2F)c2cc3c(cc2n1)O[C@@H](C)CN3C (racemic) [Compound 36a, 2,2-difluoro-2-(2-fluoro-3-((R)-1-(((S/R)-2,6,8-trimethyl-7,8-dihydro-6H-[1,4]oxazino[3,2-g]quinazolin-4-yl)amino)ethyl)phenyl)ethan-1-ol]	0.001 to 0.01	0.001 to 0.03	0.001 to 0.2
COC[C@](C)(O)C(F)(F)c1cccc([C@@H](C)Nc2nc(C)nc3cc4c(cc23)N(C)C(=O)C(C)(C)O4)c1F (racemic) [Compound 53a, 4—(((R)-1-(3-((S/R)-1,1-difluoro-2-hydroxy-3-methoxy-2-methylpropyl)-2-fluorophenyl)ethyl)amino)-2,6,8,8-tetramethyl-6H-[1,4]oxazino[3,2-g]quinazolin-7(8H)-one]	0.001 to 0.01	0.001 to 0.03	0.001 to 0.2
Cc1nc(N[C@H](C)c2cccc(C(F)(F)C(C)(C)O)c2F)c2cc3c(cc2n1)N(C)C(=O)C3C (mixture of isomers) [Compound 95, (R&S)-4-(((R)-1-(3-(1,1-difluoro-2-hydroxy-2-methylpropyl)-2-fluorophenyl)ethyl)amino)-2,6,8-trimethyl-6,8-dihydro-7H-pyrrolo[3,2-g]quinazolin-7-one]	0.011 to 0.025	0.031 to 0.13	0.001 to 0.2
Cc1nc(N[C@H](C)c2cc(N)cc(C(F)(F)F)c2)c2cc3c(cc2n1)OCCN3C [Compound 10, (R)—N-(1-(3-amino-5-(trifluoromethyl)phenyl)ethyl)-2,6-dimethyl-7,8-dihydro-6H-[1,4]oxazino[3,2-g]quinazolin-4-amine]	0.001 to 0.01	0.031 to 0.13	–
Cc1nc(N[C@H](C)c2cccc(C(F)(F)CO)c2F)c2cc3c(cc2n1)C(C)(C)C(=O)N3C [Compound 72, (R)-4-((1-(3-(1,1-difluoro-2-hydroxyethyl)-2-fluorophenyl)ethyl)amino)-2,6,8,8-tetramethyl-6,8-dihydro-7H-pyrrolo[2,3-g]quinazolin-7-one]	0.001 to 0.01	0.001 to 0.03	–
Cc1nc(N[C@H](C)c2cccc(C(F)(F)C(C)(C)O)c2F)c2cc3c(cc2n1)C(C)(C)C(=O)N3C(C)C [Compound 78, (R)-4-((1-(3-(1,1-difluoro-2-hydroxy-2-methylpropyl)-2-fluorophenyl)ethyl)amino)-6-isopropyl-2,8,8-trimethyl-6H-pyrrolo[2,3-g]quinazolin-7(8H)-one]	–	–	0.001 to 0.2
Cc1nc(N[C@H](C)c2cccc(C(F)(F)C(C)(C)O)c2F)c2cc3c(cc2n1)C1(CC1)C(=O)N3C [Compound 79, (R)-4′-((1-(3-(1,1-difluoro-2-hydroxy-2-methylpropyl)-2-fluorophenyl)ethyl)amino)-2′,6′-dimethylspiro[cyclopropane-1,8′-pyrrolo[2,3-g]quinazolin]-7′(6′H)-one]	–	–	0.001 to 0.2
Cc1nc(N[C@H](C)c2cccc(C(F)(F)C(C)(C)O)c2F)c2cc3c(cc2n1)N(C)C(C)(C)N3C [Compound 108, (R)-1,1-difluoro-1-(2-fluoro-3-(1-((1,2,2,3,6-pentamethyl-2,3-dihydro-1H-imidazo[4,5-g]quinazolin-8-yl)amino)ethyl)phenyl)-2-methylpropan-2-ol]	–	–	0.201 to 0.5
Cc1nc(N[C@H](C)c2cccc(C(F)(F)C(C)(C)O)c2F)c2cc3c(cc2n1)oc(=O)n3C [Compound 111, (R)-8-((1-(3-(1,1-difluoro-2-hydroxy-2-methylpropyl)-2-fluorophenyl)ethyl)amino)-1,6-dimethyloxazolo[4,5-g]quinazolin-2(1H)-one]	–	–	0.201 to 0.5
Cc1nc(N[C@H](C)c2cccc(C(F)(F)C(C)(C)O)c2F)c2cc3c(cc2n1)CC(=O)N3C [Compound 113, (R)-4-((1-(3-(1,1-difluoro-2-hydroxy-2-methylpropyl)-2-fluorophenyl)ethyl)amino)-2,6-dimethyl-6,8-dihydro-7H-pyrrolo[2,3-g]quinazolin-7-one]	0.001 to 0.01	0.031 to 0.13	–
Cc1nc(N[C@H](C)c2cccc(C(F)(F)C(C)(C)O)c2F)c2cc3c(cc2n1)C(=O)N(C)C3(C)C [Compound 114, (R)-4-((1-(3-(1,1-difluoro-2-hydroxy-2-methylpropyl)-2-fluorophenyl)ethyl)amino)-2,6,6,7-tetramethyl-6,7-dihydro-8H-pyrrolo[3,4-g]quinazolin-8-one]	–	–	0.001 to 0.2
Cc1nc(N[C@H](C)c2cccc(C(F)(F)C(C)(C)O)c2F)c2cc3c(cc2n1)C(F)(F)C(=O)N3C [Compound 117, (R)-4-((1-(3-(1,1-difluoro-2-hydroxy-2-methylpropyl)-2-fluorophenyl)ethyl)amino)-8,8-difluoro-2,6-dimethyl-6,8-dihydro-7H-pyrrolo[2,3-g]quinazolin-7-one]	–	–	0.201 to 0.5

Reference: US20260209247A1, “Substituted Tricyclic Compounds” (Lupin Limited, priority 2019, published 2026)
